Assay results published in US20100249419A1, “UTILIZATION OF NOVEL COMPOUNDS WITH AMYLOID AFFINITY AND METHOD OF PRODUCING THE SAME” (NIHON MEDI-PHYSICS CO., LTD., priority 2007, published 2010).

What was measured:
[1] = Partition coefficient based on the octanol extraction method; format: physicochemical; settings: octanol / 10 mmol/L phosphate buffer (pH 7.4)
Method: Partition coefficients based on the octanol extraction method (hereinafter referred to as log Poctanol) were measured, which are generally known as an indicator of permeability of compounds through the blood-brain barrier (hereinafter referred to as BBB).
A diethyl ether solution of Compound 1 prepared in Example 3 (Example 8), a diethyl ether solution of Compound 2 prepared in Example 6 (Example 9), and a diethyl ether solution of [^123I]-IMPY prepared in Reference Example 1 (Comparative Example 4) were each diluted with 10 mg/mL ascorbic acid-containing physiological saline solution, and adjusted to a radioactive concentration of 20-30 MBq/mL. To 2 mL of octanol, 10 μL each of the prepared sample solutions was added, 2 mL of 10 mmol/L phosphate buffer (pH 7.4) was added, followed by stirring for 30 seconds. After the mixture was centrifuged with a low-speed centrifuge (2000 rpm×60 min.), the octanol layer and the water layer were sampled each in an amount of 1 mL, and subjected to measurement of radioactivity count with an autowell gamma system (Type: ARC-301B, manufactured by Aloka). Using the obtained radioactivity count, log Poctanol was calculated in accordance with the equation (2).
A diethyl ether solution (Example 20) of Compound 4 prepared in Example 16, a diethyl ether solution (Example 21) of Compound 6 prepared in Example 19, and a diethyl ether solution (Comparative Example 7) of [^123I]-IMPY were each diluted with a 10 mg/mL ascorbic acid-containing physiological saline solution to adjust to a radioactive concentration of 20-30 MBq/mL. To 2 mL of octanol, 10 μL each of the prepared sample solution was added, and 2 mL of 10 mmol/L phosphate buffer (pH 7.4) was further added, followed by stirring for 30 seconds. After the mixture was centrifuged with a low-speed centrifuge (2000 rpm×60 min.), the octanol layer and the water layer were sampled each in an amount of 1 mL, and subjected to measurement of radioactivity count with an autowell gamma system (Type: ARC-301B, manufactured by Aloka). Using the obtained radioactivity count, logPoctanol was calculated in accordance with the equation (4).

[2] = target: T1, β2-microglobulin amyloid (Homo sapiens, UniProt P61769); assay: In vitro binding of labeled compound to β2-m-amyloid (glass fiber filter); settings: β2-m-amyloid 0.8 μg/mL, 22° C., 3 hours
T1 construct: purchased Oriental Yeast Co., ltd
T1 sequence (P61769 21-119): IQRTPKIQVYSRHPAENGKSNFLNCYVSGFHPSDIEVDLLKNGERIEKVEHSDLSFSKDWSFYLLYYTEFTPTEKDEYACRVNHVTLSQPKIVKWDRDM
Method: β2-microglobulin with cross -sheet structure was prepared by the following procedures (5) and (6) which was the method described in the known literature (Ohhashi, Y. et al., Journal of Biological Chemistry. 280, p. 32843-32848 (2005)) to which a little modification was made. […]
(§1) (8) A solution of Compound 1 which was synthesized by the method above in Example 3 was prepared (radioactivity of 500 MBq/mL), and diluted with a 0.1% bovine serum albumin-containing phosphate buffer (pH 7.4) to prepare a solution of 1.2-112.9 pM in terms of the total amount of 2-[4′-(2″-hydroxyethoxy)phenyl]-6-iodoimidazo[1,2-a]pyridine. […]
(§2) (11) The glass fiber filter used for the filtration of the mixture was washed with a 0.1% bovine serum albumin-containing phosphate buffer (0.2 mL×5), and radioactivity of the glass fiber filter was measured with an autowell gamma system (manufactured by Aloka, Type: ARC-7001).
(§3) (12) From the measurement results of (11), relation between the amount of Compound 1 binding to amyloid and addition amount of amyloid was evaluated. For a non-specific binding, it was determined from a sample in which no amyloid suspension was added above in (9) (Example 36). […]

[3] = target: T2, insulin amyloid (Homo sapiens, UniProt P01308); assay: In vitro binding of labeled compound to insulin amyloid (glass fiber filter); settings: insulin amyloid 0.8 μg/mL, 22° C., 3 hours
T2 construct: 5 mg of insulin (manufactured by Sigma Aldrich Japan); purchased Sigma Aldrich Japan
T2 sequence (P01308 25-54 limits assumed): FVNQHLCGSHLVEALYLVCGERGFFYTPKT
T2 sequence (P01308 90-110 limits assumed): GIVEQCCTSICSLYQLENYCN
Method: Insulin with cross -sheet structure was prepared by the following procedures (2) and (3) which was the method described in the known literature (Burke, M. J. et al., Biochemistry. 11, p. 2435-2439 (1972)) to which a little modification was made.
(2) 5 mg of insulin (manufactured by Sigma Aldrich Japan) was dissolved in 1 mL of deionized water which was adjusted to pH 2 with hydrochloric acid, and the solution was heated at 90° C. for 10 minutes, and then quickly cooled in dry ice/ethanol.
(3) A sample solution of (2) was heated at 90° C. for 5 minutes, and then quickly cooled in dry ice/ethanol. […]
as §1, §2
(12) From the measurement results of (11), relation between the amount of Compound 1 binding to amyloid and addition amount of amyloid was evaluated. […]

[4] = target: T3, amylin amyloid (Homo sapiens, UniProt P10997); assay: In vitro binding of labeled compound to amylin amyloid (glass fiber filter); settings: amylin amyloid 0.8 μg/mL, 22° C., 3 hours
T3 construct: Amylin (human) (manufactured by Wako); purchased Wako
T3 sequence (P10997 34-70 limits assumed): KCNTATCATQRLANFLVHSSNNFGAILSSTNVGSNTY
Method: (1) Using methods described in Examples 29 and 30, a 1 mg/mL suspension of aggregated amylin was prepared (hereinafter referred to as amyloid suspension in this Example) was prepared.
as §1, §2, §3

Substance | logPoctanol value ([1]; Table 4, Examples 8-9) | Radioactivity of the glass fiber filter versus amyloid non-added group [2] | Radioactivity of the glass fiber filter versus amyloid non-added group [3] | Radioactivity of the glass fiber filter versus amyloid non-added group [4] | logPoctanol value ([1]; Table 6, Examples 20-21)
2-(4′-ethoxyphenyl)-6-[^123I]iodoimidazo[1,2-a]pyridine [Compound 2] | 2.1 | – | – | – | –
2-[4′-(2″-hydroxyethoxy)phenyl]-6-[^123I]iodoimidazo[1,2-a]pyridine [Compound 1] | 1.8 | all high compared to the group without amyloid suspension | all high compared to the group without amyloid suspension | all high compared to the group without amyloid suspension | –
2-[4′-(3″-hydroxypropoxy)phenyl]-6-[^123I]iodoimidazo[1,2-a]pyridine [Compound 6] | – | all high compared to the group without amyloid suspension | all high compared to the group without amyloid suspension | all high compared to the group without amyloid suspension | 2.1
